In US6362216B1, “Compounds which inhibit tryptase activity” (Array Biopharma Inc., priority 1998, dated 2002):

Legend:
Type in all cases: biochemical
Human plasma thrombin = target: T1, Human plasma thrombin (Homo sapiens, UniProt P00734); test: Human plasma thrombin inhibition, H-D-Phe-Pip-Arg-pNA substrate; settings: the 5th table, unit inferred
T1 construct: from tissue; host or cells: human plasma
Method: (§1) Protease inhibition was assayed according to published procedures with minor modifications using various proteases and specific chromogenic peptide p-nitroanilide substrates. Assays were performed in Costar ultra-low cluster 96-well microtiter plate (Costar Corning Corp., Cambridge Mass.). Each protease was incubated with various concentrations of the test compound for 15 min. at 37° C. or as otherwise indicated, in specific assay buffer, and the residual activity was then measured by addition of the substrate. p-Nitroaniline produced by the proteolysis was determined by measuring the change in absorbance at 405 nm on a SpectraMAX 340 plate reader (Molecular devices, Sunnyvale, Calif.).
1. The inhibition constant, Ki is calculated from individual data points using the equation for a tight-binding inhibitor (See Beith, “Proteinase Inhibitors-Proceedings of 2nd Int. Res. Conference”, Fritz, et al. eds., New York, p.4463-4469 (1974)):
The Ki values are obtained by correcting Ki ′ values for the effect of substrate concentration according to: [formula]
2. Other inhibition data (Ki>>[E]o), the Ki is calculated from using the equations for a competitive inhibitor: [formula]
Human plasma thrombin activity was determined by using H-D-Phe-Pip-Arg-pNA in 50 mM Tris-HCl, pH 8.3, 100 mM NaCl, 1% BSA (See Lottenberg, et al., Meth. Enzymol. 80, 341-361 (1981)).
The inhibition constant (Ki) of the test compounds against each proteolytic enzyme was determined according to Zitnik et al., Biochem. Biophys. Res. Commun. 232, 687-697 (1997)).

Human plasma factor Xa = target: T2, Human plasma factor Xa (Homo sapiens, UniProt P00742); test: Human plasma factor Xa inhibition, N-Benzoyl-Ile-Glu-Gly-Arg-pNA substrate; settings: 50 mM Tris-HCl, pH 7.8, 200 mM NaCl, 0.05% BSA
T2 construct: from tissue; host or cells: human plasma
T2 sequence (P00742 235-488 limits assumed): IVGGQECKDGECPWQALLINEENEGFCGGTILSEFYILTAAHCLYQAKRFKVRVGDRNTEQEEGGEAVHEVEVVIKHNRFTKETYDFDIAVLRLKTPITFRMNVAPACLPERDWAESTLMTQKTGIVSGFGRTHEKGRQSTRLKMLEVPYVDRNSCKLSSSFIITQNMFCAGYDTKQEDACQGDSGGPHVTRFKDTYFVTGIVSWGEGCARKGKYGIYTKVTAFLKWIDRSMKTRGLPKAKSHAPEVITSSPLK
T2 sequence (P00742 41-179 partner limits assumed): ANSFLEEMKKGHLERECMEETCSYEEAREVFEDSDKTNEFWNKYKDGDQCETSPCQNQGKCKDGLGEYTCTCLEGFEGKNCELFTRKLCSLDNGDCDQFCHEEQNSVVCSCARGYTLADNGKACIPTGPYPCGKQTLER
Method: as §1
(§2) 1. The inhibition constant, Ki is calculated from individual data points using the equation for a tight-binding inhibitor (See Beith, “Proteinase Inhibitors-Proceedings of 2nd Int. Res. Conference”, Fritz, et al. eds., New York, p.4463-4469 (1974)): […]
(§3) 2. Other inhibition data (Ki>>[E]o), the Ki is calculated from using the equations for a competitive inhibitor: [formula] […]
Human plasma factor Xa activity was determined by using N-Benzoyl-Ile-Glu-Gly-Arg-pNA in 50 mM Tris-HCl, pH 7.8, 200 mM NaCl, 0.05% BSA (See Lottenberg, et al. Meth. Enzymol. 80, 341-361 (1981)).
(§4) The inhibition constant (Ki) of the test compounds against each proteolytic enzyme was determined according to Zitnik et al., Biochem. Biophys. […]

[1] = target: T3, Human Neutrophil elastase (Homo sapiens, UniProt P08246); test: Human neutrophil elastase inhibition, pyroGlu-Pro-Val-pNA substrate; settings: 100 mM Tris-HCl, pH 8.3, 0.96 M NaCl, 1% BSA
T3 construct: from tissue; host or cells: human neutrophils
T3 sequence (P08246 30-267): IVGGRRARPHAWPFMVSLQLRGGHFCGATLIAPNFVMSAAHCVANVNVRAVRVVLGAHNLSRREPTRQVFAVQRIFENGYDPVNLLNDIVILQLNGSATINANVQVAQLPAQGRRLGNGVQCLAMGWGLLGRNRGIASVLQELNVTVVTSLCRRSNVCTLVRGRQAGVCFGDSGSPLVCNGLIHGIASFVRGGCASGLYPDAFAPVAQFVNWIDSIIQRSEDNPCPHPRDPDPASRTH
Method: as §1, §2, §3
Human Neutrophil elastase activity was determined by using pyroGlu-Pro-Val-pNA in 100 mM Tris-HCl, pH 8.3, 0.96 M NaCl, 1% BSA (See Kramps, et al. Scand. J. Clin. Lab. Invest. 43, 427-432 (1983)).
as §4

[2] = target: T4, Bovine Pancreatic Chymotrypsin (Bos taurus, UniProt P00766); test: Bovine pancreatic chymotrypsin inhibition, N-Suc-Ala-Ala-Pro-Phe-pNA substrate; settings: 100 mM Tris-HCl, pH 7.8, 10 mM CaCl2
T4 construct: from tissue; host or cells: bovine pancreas
Method: as §1, §2, §3
Bovine Pancreatic Chymotrypsin activity was determined by using N-Suc-Ala-Ala-Pro-Phe-pNA in 100 mM Tris-HCl, pH 7.8, 10 mM CaCl2 (See Delmar, et al., J. Biochem. 85, 157-162 (1979)).
as §4

[3] = target: Human r-tissue kallikrein (Homo sapiens, UniProt P06870); test: Human r-tissue kallikrein inhibition, DL-Val-Leu-Arg-pNA substrate; settings: 50 mM Tris-HCl, pH 7.8, 200 mM NaCl, 0.05% BSA
Human r-tissue kallikrein, sequence (P06870 25-262): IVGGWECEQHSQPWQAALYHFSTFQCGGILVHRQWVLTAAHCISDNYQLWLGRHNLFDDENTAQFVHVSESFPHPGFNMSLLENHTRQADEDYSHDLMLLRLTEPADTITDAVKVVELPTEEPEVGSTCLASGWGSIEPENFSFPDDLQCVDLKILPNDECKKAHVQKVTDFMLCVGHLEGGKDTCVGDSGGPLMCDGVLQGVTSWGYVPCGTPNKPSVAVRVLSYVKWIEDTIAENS
Method: as §1, §2, §3
Human plasma and r-tissue kallikrein activity were determined in 50 mM Tris-HCl1, pH 7.8, 200 mM NaCl, 0.05% BSA by using H-D-Prolyl-Phe-Arg-pNA and DL-Val-Leu-Arg-pNA, respectively (See Lottenberg, et al., Meth. Enzymol. 80, 341-361 (1981)). […]

Cc1cc2cc(CNC(=O)Cc3cc4cc(C(=N)N)ccc4s3)ccc2[nH]1 [drawing 17 Benzthiophene 5-carboxamidine n=1]
Ki (Human plasma thrombin): 25.8 µM | Ki (Human plasma factor Xa): 17.7 µM | Ki [1]: > 100 µM | Ki [2]: > 100 µM | Ki [3]: > 100 µM
